Assay results: patent publication US8486606B2, “Acrylate derivative, haloester derivative, polymer compound and photoresist composition” (Kuraray Co., Ltd., priority 2008, dated 2013)

Test: Evaluation of solubility at 25° C. in organic solvent
Assay type: physicochemical
Method: A solubility of 2-methacryloyloxyacetoxy-4,5-oxathiatricyclo[4.2.1.0^3,7]nonane-5,5-dioxide obtained in Example 2 in tetrahydrofuran was measured according to the following operation.
1 g of a sample to be used for the evaluation of solubility was prepared. 1 g of an organic solvent described in Table 1 and the foregoing sample were mixed at 25° C., and the mixture was stirred at 25° C. for 10 minutes as it was. An insoluble matter was filtered out from the obtained mixed solution, and the organic solvent was distilled off from the filtrate. Subsequently, the residue was dried under reduced pressure for 5 hours, thereby obtaining the sample in the saturated solution. A mass of the subject sample was measured, and its solubility was calculated according to the following expression. Solubility(% by mass)=100×(Mass of the sample in the saturated solution)/(Mass of the saturated solution)
The experiment and evaluation of solubility were carried out in the same manner as in Example 7, except that in Example 7, the sample and the organic solvent were changed to those shown in Table 1 or Table 2.

[1] = organic solvent: Methyl ethyl ketone
[2] = organic solvent: Tetrahydrofuran

SMILES	Solubility [1]	Solubility [2]
C=C(C)C(=O)OCC(=O)OC1C2CC3C1OS(=O)(=O)C3C2 (stereo not drawn) [Example 2, 2-methacryloyloxyacetoxy-4,5-oxathiatricyclo[4.2.1.0^3,7]nonane-5,5-dioxide]	45.5 % by mass	48.1 % by mass
C=C(C)C(=O)OCC(=O)OC1C2CC3C(O2)C1OS3(=O)=O (stereo not drawn) [Example 4, 5-methacryloyloxyacetoxy-3,7-dioxa-2-thiatricyclo[4.2.1.0^4,8]nonane-2,2-dioxide]	30.8 % by mass	31.9 % by mass
C=C(C)C(=O)OCC(=O)OC1C2CC3C(=O)OC1C3O2 (stereo not drawn) [reference compound]	4.2 % by mass	7.8 % by mass
